Assay results from ChEMBL document CHEMBL5370526, “Recent advances in EZH2-based dual inhibitors in the treatment of cancers” (Eur J Med Chem, 2023).

What was measured:
MCF-10A = experiment: Antiproliferative activity against human MCF-10A cells assessed as cell growth inhibition measured after 72 hrs by MTT assay; format: functional, cell-based
[1] = Antiproliferative activity against human DLBCL cells assessed as reduction in cell viability measured after 72 hrs by MTT assay; format: functional, cell-based
[2] = biological target: T1, Histone-lysine N-methyltransferase EZH2 (Homo sapiens, UniProt Q15910)
T1 sequence (Q15910 whole entry): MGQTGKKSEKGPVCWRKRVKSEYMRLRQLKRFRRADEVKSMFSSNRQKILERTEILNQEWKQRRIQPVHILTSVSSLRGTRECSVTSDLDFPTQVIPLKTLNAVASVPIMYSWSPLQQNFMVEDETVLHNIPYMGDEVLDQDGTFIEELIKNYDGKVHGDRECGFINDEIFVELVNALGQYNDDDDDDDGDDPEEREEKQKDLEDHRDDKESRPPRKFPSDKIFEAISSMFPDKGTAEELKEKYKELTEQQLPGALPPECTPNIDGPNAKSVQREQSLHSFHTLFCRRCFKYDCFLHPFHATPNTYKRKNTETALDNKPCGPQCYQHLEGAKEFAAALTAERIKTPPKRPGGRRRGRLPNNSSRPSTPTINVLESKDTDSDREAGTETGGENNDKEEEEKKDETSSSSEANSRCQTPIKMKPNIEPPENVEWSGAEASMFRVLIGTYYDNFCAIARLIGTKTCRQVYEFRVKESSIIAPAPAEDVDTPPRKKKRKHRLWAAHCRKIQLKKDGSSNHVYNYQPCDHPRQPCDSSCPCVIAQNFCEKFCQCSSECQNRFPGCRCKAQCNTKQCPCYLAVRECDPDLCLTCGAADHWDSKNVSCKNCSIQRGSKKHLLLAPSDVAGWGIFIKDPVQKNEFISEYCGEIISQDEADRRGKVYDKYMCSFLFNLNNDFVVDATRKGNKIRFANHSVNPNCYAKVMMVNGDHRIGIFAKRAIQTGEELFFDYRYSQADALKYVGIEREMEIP
Description: Inhibition of human EZH2 using core histone as substrate incubated for 1 hr by fluorescence based assay

[3] = biological target: T1, Histone-lysine N-methyltransferase EZH2; remark: listed apart in the source
Description: Inhibition of human EZH2 in human MCF-10A cells assessed as reduction in H3K27me3 levels incubated for 72 hrs by Western blot analysis

[4] = biological target: Histone-lysine N-methyltransferase EZH2 (Homo sapiens, UniProt Q15910, Y641F); experiment: Inhibition of N-terminal FLAG-tagged recombinant full-length human EZH2 Y641F mutant in PRC2 complex expressed in baculovirus infected Sf9 cells using H3K27me0 biotin/SAM as substrate preincubated for 10 mins followed by substrate addition measured after 4 hrs by HTRF assay
Sequence of Histone-lysine N-methyltransferase EZH2 (Homo sapiens, UniProt Q15910, Y641F) (Q15910 whole entry Y641F): as the sequence (Q15910 whole entry) above, with Y641F counted along it

[5] = biological target: T1, Histone-lysine N-methyltransferase EZH2; experiment: Inhibition of EZH2 methyltransferase activity in human PA-1 cells assessed as reduction in H3K27me3 level measured after 4 days by Western blot analysis; format: cell-based
ASPC1 = experiment: Antiproliferative activity against human ASPC1 cells harboring KRAS G12D mutant assessed as reduction in cell growth measured after 72 hrs by MTT assay; format: functional, cell-based; conditions: ASPC1, 72 h
HCT-116 = experiment: Cytotoxicity against human HCT-116 cells assessed as reduction in cell viability measured after 72 hrs by MTT assay; format: functional, cell-based; conditions: HCT-116, 72 h
KARPAS-422 [6] = experiment: Growth inhibition of human KARPAS-422 cells assessed as reduction in cell viability measured after 72 hrs by MTT assay; format: functional
G-401 = experiment: Growth inhibition of human G-401 cells assessed as reduction in cell viability measured after 72 hrs by MTT assay; format: functional
NCI-N87 = experiment: Growth inhibition of human NCI-N87 cells assessed as reduction in cell viability measured after 72 hrs by MTT assay; format: functional
KARPAS-422 [7] = experiment: Antitumor activity against human KARPAS-422 cells xenografted in nude mouse assessed as reduction in tumor growth at 100 mg/kg, po administered once daily for 14 consecutive days relative to control; format: functional; conditions: read-out: TGI
[8] = biological target: T1, Histone-lysine N-methyltransferase EZH2; experiment: Inhibition of EZH2 (unknown origin) using plate-coated histone as substrate at 5 uM incubated for 90 mins in presence of 5 uM SAM by AlphaScreen assay
A549 = experiment: Antiproliferative activity against human A549 cells assessed as reduction in cell viability measured after 48 hrs by MTT assay; format: functional, cell-based; conditions: A549, 48 h
[9] = biological target: T1, Histone-lysine N-methyltransferase EZH2; experiment: Inhibition of wildtype EZH2 (unknown origin)
[10] = biological target: T1, Histone-lysine N-methyltransferase EZH2; experiment: Inhibition of EZH2 (unknown origin) using SAM as substrate preincubated for 10 mins followed by substrate addition and measured after 4 hrs by HTRF assay
MV4-11 = experiment: Growth inhibition of human MV4-11 cells assessed as reduction in cell viability measured after 72 hrs by MTT assay; format: functional
RS4-11 = experiment: Growth inhibition of human RS4-11 cells assessed as reduction in cell viability measured after 72 hrs by MTT assay; format: functional

With `COc1cc2nc(N3CCN(C)CC3)nc(NC3CCN(Cc4ccccc4)CC3)c2cc1OC` the IC50 (MCF-10A) was > 15 µM.

For `CCCc1cc(C)[nH]c(=O)c1CNC(=O)c1cc(-c2ccc(N3CCN(C(C)C)CC3)nc2)cc2c1cnn2C(C)C`, the EC50 [1] was 0.633 µM, the IC50 [2] was < 0.01 µM and the IC50 [3] was < 0.01 µM.

In the case of `CCCc1cc(C)[nH]c(=O)c1CNC(=O)c1cc(-c2ccc(N3CCN(C)CC3)nc2)nc2c1cnn2C(C)C`, the IC50 [4] is reported as 0.08 µM.

For `CCN(c1cc(-c2ccc(CN3CCN(CCCCCCCOc4cccc5c4C(=O)N(C4CCC(=O)NC4=O)C5=O)CC3)cc2)cc(C(=O)NCc2c(C)cc(C)[nH]c2=O)c1C)C1CCOCC1` (configuration not stated), the IC50 [5] was < 0.005 µM.

In the case of `CCN(c1cc(-c2ccc(OCCCCCNC(=O)C[C@@H]3N=C(c4ccc(Cl)cc4)c4c(sc(C)c4C)-n4c(C)nnc43)cc2)cc(C(=O)NCc2c(C)cc(C)[nH]c2=O)c1C)C1CCOCC1`, the IC50 (ASPC1) is reported as 0.69 µM.

In the case of `Cc1cc(C)c(CNC(=O)c2cc(Br)c3c(c2C)O[C@@](C)([C@H]2CC[C@H](N(C)C)CC2)O3)c(=O)[nH]1`, the IC50 (HCT-116) is reported as 0.00062 µM, the GI50 (KARPAS-422 [6]) is reported as 0.004 µM and the GI50 (G-401) is reported as 0.0177 µM. The GI50 (NCI-N87) was 0.536 µM.

`CCN1CCN(c2ccc(-c3cc(C(=O)NCc4c(C)cc(C)[nH]c4=O)c(C)c4c3O[C@](C)(CN3CCOCC3)O4)cn2)CC1` showed an IC50 (HCT-116) of 0.00055 µM, a GI50 (KARPAS-422 [6]) of 0.21 µM and an inhibition in vivo at 100 mg/kg (KARPAS-422 [7]) of 82%.

With `CCN(c1cc(-c2ccc(CN3CCN(C(=O)CCCCCCCC(=O)N[C@H](C(=O)N4C[C@H](O)C[C@H]4C(=O)NCc4ccc(-c5scnc5C)cc4)C(C)(C)C)CC3)cc2)cc(C(=O)NCc2c(C)cc(C)[nH]c2=O)c1C)C1CCOCC1` the IC50 [8] was 8.6 µM.

Compound `Cc1cc(C)c(CNC(=O)c2c(C)cn(Cc3ccc(C(F)(F)F)cc3)c2C)c(=O)[nH]1` has an IC50 (A549) of 270 µM.

With `CCN(c1cc(C(=O)NCc2c(C)cc(C)[nH]c2=O)c2cc(CN3CCCCC3)oc2c1)C1CCOCC1` the IC50 [9] was 0.0064 µM.

For `Cc1cc(C)c(CNC(=O)c2cc(-c3ccc(N4CCN(CCNC(=O)C56CC7CC(CC(C7)C5)C6)CC4)nc3)cc3c2cnn3C(C)C)c(=O)[nH]1`, the IC50 [10] was 0.12 µM.

Compound `Cc1cc(C)c(CNC(=O)c2cc(Cl)c3c(c2C)O[C@@](C)([C@H]2CC[C@H](N(C)C)CC2)O3)c(=O)[nH]1` [VALEMETOSTAT] has an IC50 (HCT-116) of 0.024 µM, a GI50 (KARPAS-422 [6]) of 0.0048 µM and a GI50 (MV4-11) of 0.0048 µM. The GI50 (RS4-11) was 0.0783 µM.
